Measured values from paper PMC5479785, “Tandem malonate-based glucosides (TMGs) for membrane protein structural studies” (Scientific Reports, 2017).

Assays:
[1] = molecular target: T1, MelBSt (Salmonella enterica, UniProt P30878); test: Trp to D2G FRET in detergent extract of membrane vesicles; assay type: biochemical; conditions: 10 μM D2G, 100 mM KPi, 100 mM NaCl, pH 7.5, DDM; fluorescent ligand
T1 construct: gene melB; wild type, C-terminal 10-His tag, plasmid pK95ΔAHB/WT MelBSt/CH10; detergent extract of RSO vesicles of E. coli DW2
T1 sequence (P30878 whole entry): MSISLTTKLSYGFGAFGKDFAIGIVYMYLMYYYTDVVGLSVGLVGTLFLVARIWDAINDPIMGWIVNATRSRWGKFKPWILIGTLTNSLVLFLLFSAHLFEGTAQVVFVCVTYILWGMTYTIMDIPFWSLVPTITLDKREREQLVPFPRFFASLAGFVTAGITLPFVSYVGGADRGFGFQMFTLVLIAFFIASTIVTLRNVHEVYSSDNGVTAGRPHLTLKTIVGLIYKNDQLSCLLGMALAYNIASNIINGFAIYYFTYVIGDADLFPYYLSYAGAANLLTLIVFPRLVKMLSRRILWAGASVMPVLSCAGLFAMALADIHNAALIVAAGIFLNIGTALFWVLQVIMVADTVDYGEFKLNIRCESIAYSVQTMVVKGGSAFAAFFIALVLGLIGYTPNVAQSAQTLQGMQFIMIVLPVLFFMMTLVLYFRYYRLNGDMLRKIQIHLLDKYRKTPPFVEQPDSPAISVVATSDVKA

[2] = molecular target: T2, MelBEc (Escherichia coli, UniProt P02921); test: as above; assay type: biochemical; conditions: 10 μM D2G, 100 mM KPi, 100 mM NaCl, pH 7.5, TMG-A12 or TMG-A13; fluorescent ligand
T2 construct: gene melB; expressed in E. coli DW2 (ΔmelB ΔlacZY); detergent extract of RSO membrane vesicles
T2 sequence (P02921 2-473): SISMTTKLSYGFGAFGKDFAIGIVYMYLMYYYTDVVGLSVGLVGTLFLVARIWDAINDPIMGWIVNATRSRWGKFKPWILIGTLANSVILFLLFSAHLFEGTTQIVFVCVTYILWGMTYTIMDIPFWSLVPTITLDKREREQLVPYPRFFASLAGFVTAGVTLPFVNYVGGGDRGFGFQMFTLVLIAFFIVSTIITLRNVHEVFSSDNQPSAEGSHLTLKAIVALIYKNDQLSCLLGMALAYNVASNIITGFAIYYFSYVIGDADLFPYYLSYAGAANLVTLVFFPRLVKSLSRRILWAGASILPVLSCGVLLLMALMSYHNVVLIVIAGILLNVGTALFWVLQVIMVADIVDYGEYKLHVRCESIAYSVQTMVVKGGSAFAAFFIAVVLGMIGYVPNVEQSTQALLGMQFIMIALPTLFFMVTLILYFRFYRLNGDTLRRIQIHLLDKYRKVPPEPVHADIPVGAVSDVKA

[3] = molecular target: T3, β2AR (Homo sapiens, UniProt P07550); test: radioligand binding, G-50 column separation; conditions: 10 nM [3H]-DHA, 20 mM HEPES pH 7.5, 100 mM NaCl, 0.5 mg/mL BSA, DDM or TMG detergent; antagonist; labelled compound
T3 construct: gene ADRB2; expressed in Sf9 insect cells (baculovirus), purified in DDM
T3 sequence (P07550 whole entry): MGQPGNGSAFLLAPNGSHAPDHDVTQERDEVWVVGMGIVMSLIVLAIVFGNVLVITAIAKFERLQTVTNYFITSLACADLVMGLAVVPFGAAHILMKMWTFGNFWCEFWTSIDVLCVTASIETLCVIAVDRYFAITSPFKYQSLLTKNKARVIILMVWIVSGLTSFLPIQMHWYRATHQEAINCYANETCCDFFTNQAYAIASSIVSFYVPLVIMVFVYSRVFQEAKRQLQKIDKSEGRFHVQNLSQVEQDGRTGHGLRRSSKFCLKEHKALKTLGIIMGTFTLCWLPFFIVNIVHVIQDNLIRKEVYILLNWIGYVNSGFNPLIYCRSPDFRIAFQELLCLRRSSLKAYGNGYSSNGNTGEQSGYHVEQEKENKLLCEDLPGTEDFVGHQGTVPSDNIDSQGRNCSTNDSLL

[4] = molecular target: T1, MelBSt; test: reversal of Trp to D2G FRET by displacement; assay type: biochemical; conditions: excess melibiose against 10 μM D2G, 100 mM KPi, 100 mM NaCl, pH 7.5, DDM; competitive
[5] = molecular target: T2, MelBEc; test: reversal of Trp to D2G FRET by displacement; assay type: biochemical; conditions: excess melibiose against 10 μM D2G, 100 mM KPi, 100 mM NaCl, pH 7.5, TMG-A12 or TMG-A13; competitive

CN(C)c1cccc2c(S(=O)(=O)NCCS[C@@H]3O[C@H](CO)[C@H](O)[C@H](O)[C@H]3O)cccc12 [D2G, 2′-(N-dansyl)aminoalkyl-1-thio-β-D-galactopyranoside]
Trp→D2G FRET [1]: a functional MelBSt gives an increase in fluorescence intensity induced by Trp→ D^2G FRET
Trp→D2G FRET [2]: TMG-A12 or TMG-A13 resulted in a functional MelBEc as demonstrated by large changes in FRET signal

CCCc1ccccc1OCC(O)CNC(C)C (centres unmarked) [[3H]-dihydroalprenolol]
[3H]-DHA binding [3]: receptor stability was assessed via a ligand binding assay using the antagonist, [^3H]-dihydroalprenolol

OC[C@H]1O[C@H](OC[C@H]2OC(O)[C@H](O)[C@@H](O)[C@@H]2O)[C@H](O)[C@@H](O)[C@H]1O (some centres unmarked) [melibiose]
FRET reversal [4]: Upon addition of melibiose, the DDM-solubilized MelBSt gave a large reversal in the FRET signal
FRET reversal [5]: reversed by adding a non-fluorescent sugar substrate (i.e., melibiose)
